Data from patent US11524956B2, “Alkyne substituted quinazoline compound and methods of use” (Newgen Therapeutics, Inc., priority 2011, dated 2022).

How the values were obtained:
EGFR kinase = EGFR kinase (Homo sapiens (Human), UniProt P00533); test: Kinase assay for EGFR (TR-FRET, LanthaScreen); type: biochemical; conditions: read-out: Kinase inhibition IC50 (nM) EGFR
Method: The extent to which the compounds of the present invention modulate EGFR kinase activity can be determined using time-resolved Fret (TR-FRET) assay (LanthaScreen® kinase activity assay, from InVitrogen). The assay employs EGFR kinase (PV3872, Invitrogen), Tb-Py20 antibody (PV3552, InVitrogen) and fluorescein-poly GT (PV3610, InVitrogen).
The assay is performed in a Black 384-well plate (available from Corning). EGFR kinase (is diluted in TR-FRET Dilution Buffer (PV3189, InVitrogen) at concentration of 0.4 ug/ml as stock solution, and then 2-fold serial diluted. Addition of 1 mM ATP initiated the reaction, and the reaction is incubated for […] at room temperature. 10 μL of the Tb-antibody (from InVitrogen)+EDTA (from InVitrogen) solution prepared was added to each well of the assay plate and mix briefly, and incubated for 30 min. The signal is monitored by using M5 microplate reader (Ex=332 nm, Em=488 nm and 518 nm). Each compound is tested in duplicate wells. EGFR without compound is used as control. Staurosporine (available from Sigma) is used as positive control compound. Inhibition was calculated as percentage of the EGFR activity (without compound).

ErbB2 kinase protein = ErbB2 kinase protein (Homo sapiens (Human), UniProt P04626); test: Kinase assay for ErbB2; type: biochemical; conditions: read-out: Kinase inhibition IC50 (nM) ErbB2
Chain of ErbB2 kinase protein (P04626 23-1255): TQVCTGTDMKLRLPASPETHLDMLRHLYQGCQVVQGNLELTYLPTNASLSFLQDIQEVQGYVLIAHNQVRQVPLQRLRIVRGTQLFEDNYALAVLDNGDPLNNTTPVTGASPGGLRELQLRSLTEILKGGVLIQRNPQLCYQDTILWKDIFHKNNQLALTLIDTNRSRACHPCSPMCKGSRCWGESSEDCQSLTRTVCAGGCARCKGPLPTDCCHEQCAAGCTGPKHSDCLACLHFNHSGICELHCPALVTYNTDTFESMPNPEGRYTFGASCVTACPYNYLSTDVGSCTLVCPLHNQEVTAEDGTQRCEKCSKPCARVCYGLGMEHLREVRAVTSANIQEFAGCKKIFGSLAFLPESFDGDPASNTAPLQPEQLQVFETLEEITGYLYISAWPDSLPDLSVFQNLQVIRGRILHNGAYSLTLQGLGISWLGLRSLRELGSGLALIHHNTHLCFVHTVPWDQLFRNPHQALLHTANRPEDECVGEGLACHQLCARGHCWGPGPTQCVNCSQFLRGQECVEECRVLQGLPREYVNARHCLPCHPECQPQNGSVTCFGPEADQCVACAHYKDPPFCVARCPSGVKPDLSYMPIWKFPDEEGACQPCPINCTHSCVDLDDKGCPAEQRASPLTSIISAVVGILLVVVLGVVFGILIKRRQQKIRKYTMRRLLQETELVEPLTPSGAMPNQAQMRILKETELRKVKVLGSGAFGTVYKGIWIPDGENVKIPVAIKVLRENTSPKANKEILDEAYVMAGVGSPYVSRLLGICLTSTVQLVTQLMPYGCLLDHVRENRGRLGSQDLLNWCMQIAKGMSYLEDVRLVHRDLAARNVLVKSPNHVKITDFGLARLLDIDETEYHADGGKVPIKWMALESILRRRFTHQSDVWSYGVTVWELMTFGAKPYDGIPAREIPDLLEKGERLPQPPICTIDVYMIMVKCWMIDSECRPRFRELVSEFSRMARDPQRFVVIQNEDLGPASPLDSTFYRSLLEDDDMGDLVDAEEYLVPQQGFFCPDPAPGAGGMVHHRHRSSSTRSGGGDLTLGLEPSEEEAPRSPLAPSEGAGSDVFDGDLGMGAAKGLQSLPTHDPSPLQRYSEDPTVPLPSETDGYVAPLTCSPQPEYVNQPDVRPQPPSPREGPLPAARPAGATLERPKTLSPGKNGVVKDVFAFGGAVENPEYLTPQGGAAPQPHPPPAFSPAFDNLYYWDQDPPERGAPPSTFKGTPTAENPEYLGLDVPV
Method: The assay is performed similarly to the kinase assay for […] as described above, except ErbB2 kinase protein is used instead of EGFR kinase protein.

NCI-N87 xenograft = test: In vivo efficacy in NCI-N87 xenograft mouse model; conditions: for RTV T/C / tumor growth inhibition: day-7 after treatment
Method: NCI-N87 cell line was purchased from ATCC (American Type Culture Collection) and was cultured in RPMI1640+10% FBS+1% P/S antibiotics.
Male Balb/c nude mice, 6-8 week, 18±2 g (supplier: Shanghai SLAC Laboratory Animal Co. Ltd.) were used for the experiment. The purchased mice were adapted to the environment for 7 days before use, and were housed at 22-25° C. with humidity 40-70%, and light cycle with fluorescent light for 12-hour light (8:00-20:00) 12-hour dark. The mice have free access to food and water.
The cancer cells (NCI-N87) were implanted subcutaneous into the nude mice (right flank) with 5.0×10^6 cells in 0.1 ml PBS (50 mice). When the tumor size reaches a volume of 200 (150-200) mm^3, the tumor-bearing nude mice were randomly assigned into groups (10 mice/group), one group was served as vehicle, one group was administrated with Lapatinib ditosylate monohydrate (80 mg/kg, free base of Lapatinib, not salt, p.o. […]). The other two groups were administrated with NT113 (also referred to as KID 113) ((15 and 30 mg/kg, p.o.q.d, respectively). The administration period lasted for 4 weeks.
The mice were monitored twice daily for appearance and behavior, and for signs of morbidity and/or mortality. The tumor volume was measured twice a week, and the body weight was measured immediately before measuring the tumor volume throughout the whole study.
At end of the experiment (compound administration for four weeks), all the tumor-bearing mice were sacrificed by cervical dislocation under deep anesthesia. The tumor mass was resected, and weighed.
Tumor sizes were measured twice weekly in two dimensions using a caliper, and the volume was expressed in mm^3 using the formula: V=½×a×b^2 where a and b are the long and short diameters of the tumor, respectively. The tumor mass was weighed at the end of the experiment after harvested.
V=½×a×b^2 (a, h is maximum and minimum diameters respectively).
RTV (Relative Tumor Volume)=Vt/Vo • Vo is the tumor volume when the test article is initial administrated • Vt is the tumor volume of every measurement day after test article administration
T/C (%)=TRTV/CRTV×100% • TRTV: RTV of test article-treatment group; CRTV: RTV of control group Inhibition rate (%)=(average tumor volume of control group average cancer volume of test article treatment group)/average tumor volume of control group×100%
The tumor-bearing mice were treated for 4 weeks with different doses of KU (15 mg/kg, 30 mg/kg, […]), qd) and Lapatinib KUA-1, 80 mg/kg, p.o., bid, 7 days/week. At the day-7 after treatment, the RTV TIC KU113 (15 mg/kg, 30 mg/kg) groups were <30%, and the tumor growth inhibition was >70%. but the RTV TIC was 31% and tumor growth inhibition rat was 69% in the lapatinib group. The same result was observed as well when it comes to the tumor weight. On day 28 after treatment, all the tumor-bearing mice were sacrificed, and all the tumor masses were harvested to weigh.

Chain of EGFR kinase (P00533 668-1210): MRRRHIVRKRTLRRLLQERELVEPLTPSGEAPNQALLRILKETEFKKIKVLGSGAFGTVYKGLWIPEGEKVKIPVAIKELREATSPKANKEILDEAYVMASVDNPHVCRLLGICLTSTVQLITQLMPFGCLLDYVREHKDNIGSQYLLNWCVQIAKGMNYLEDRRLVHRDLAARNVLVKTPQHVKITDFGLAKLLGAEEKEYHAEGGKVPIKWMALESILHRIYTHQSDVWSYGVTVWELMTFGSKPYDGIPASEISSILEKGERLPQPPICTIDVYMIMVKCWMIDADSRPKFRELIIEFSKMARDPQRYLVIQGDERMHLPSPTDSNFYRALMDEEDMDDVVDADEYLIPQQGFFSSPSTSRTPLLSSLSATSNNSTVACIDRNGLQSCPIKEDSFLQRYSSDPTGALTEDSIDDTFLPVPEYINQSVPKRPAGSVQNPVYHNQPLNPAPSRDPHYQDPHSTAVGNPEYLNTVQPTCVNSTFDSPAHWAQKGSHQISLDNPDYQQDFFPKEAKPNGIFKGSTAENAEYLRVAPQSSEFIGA

For `CN(C)C/C=C/C(=O)Nc1cc2c(Nc3ccc(F)c(Cl)c3)ncnc2cc1C#C[C@@H]1[C@H]2COC[C@@H]12` [Example 4, (E)-N-(4-(3-chloro-4-fluorophenylamino)-7-(2-((1R,5S,6s)-3-oxa-bicyclo[3.1.0]hexan-6-yl)ethynyl)quinazolin-6-yl)-4-(dimethylamino)but-2-enamide], the IC50 (EGFR kinase) was < 100 nM, the IC50 (ErbB2 kinase protein) was < 100 nM and the “tolerability (side effect)” value (NCI-N87 xenograft; 15 mg/kg, po, qd) was “without predefined side effect”. For the same molecule, the “body weight after dosing was stopped” value (NCI-N87 xenograft; 30 mg/kg group, by day 28) was “recovered to normal”, the body weight effect (NCI-N87 xenograft; 30 mg/kg, p.o., qd, 7 days/week) was “body weight loss” and the “RTV T/C” value (NCI-N87 xenograft; 15 mg/kg po qd) was < 30%. The tumor growth inhibition (NCI-N87 xenograft; 15 mg/kg po qd) was > 70%, the “RTV T/C” value (NCI-N87 xenograft; 30 mg/kg po qd) was < 30% and the tumor growth inhibition (NCI-N87 xenograft; 30 mg/kg po qd) was > 70%.
